Values of other authors in patent US9427470B2, “Hyaluronic acid stabilizer” (priority 2012, dated 2016).

Biological target: CD44 (Homo sapiens, UniProt P16070)
Details: Aruffo, et al., 1990

Chain of CD44 (P16070 21-742, species assumed): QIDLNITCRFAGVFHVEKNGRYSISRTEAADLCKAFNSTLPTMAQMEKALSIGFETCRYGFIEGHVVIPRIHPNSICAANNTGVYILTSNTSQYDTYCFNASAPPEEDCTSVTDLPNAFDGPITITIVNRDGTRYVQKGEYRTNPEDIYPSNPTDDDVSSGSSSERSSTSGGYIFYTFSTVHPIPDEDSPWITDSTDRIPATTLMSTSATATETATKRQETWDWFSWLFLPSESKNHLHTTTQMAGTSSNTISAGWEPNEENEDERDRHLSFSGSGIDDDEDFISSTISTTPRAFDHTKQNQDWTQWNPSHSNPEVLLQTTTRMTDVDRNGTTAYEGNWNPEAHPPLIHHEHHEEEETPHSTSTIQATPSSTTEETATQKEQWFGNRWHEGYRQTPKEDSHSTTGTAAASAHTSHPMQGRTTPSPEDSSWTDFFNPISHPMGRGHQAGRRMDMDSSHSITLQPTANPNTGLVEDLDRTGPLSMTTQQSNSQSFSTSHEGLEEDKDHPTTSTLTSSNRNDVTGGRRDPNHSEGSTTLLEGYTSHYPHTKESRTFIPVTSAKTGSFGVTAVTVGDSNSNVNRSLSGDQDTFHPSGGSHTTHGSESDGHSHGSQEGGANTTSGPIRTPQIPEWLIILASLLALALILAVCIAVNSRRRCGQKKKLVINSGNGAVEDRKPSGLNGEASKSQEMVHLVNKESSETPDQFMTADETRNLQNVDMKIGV

Hyaluronic acid [HA]
strength of bond to CD44 relative to chondroitin sulfate: about 100 times
